Source: patent US5798372A, “Method for preventing onset of restenosis after angioplasty employing a retinoid” (Allergan, priority 1997, dated 1998)

Assays:
[1] = tested on: cellular proliferation at the site of vascular injury (balloon angioplasty); assay: Rabbit model of angioplasty-induced arterial injury, in vivo 3H-thymidine incorporation; parameters: species or system New Zealand white rabbits; conditions: 10 mg/kg IP daily
Excerpt: There has been interest in attempting to reduce the incidence of restenosis by minimizing the trauma of angioplasty. […] However, a similar relationship between the degree of injury and restenosis has not been documented with conventional balloon angioplasty. In order to better characterize the time course and degree of cellular proliferation resulting from vascular injury, the effect of retinoids on the in vivo incorporation of 3H-thymidine in a rabbit model of arterial injury was studied. Varying degrees of injury were produced including both simple de-endothelialization of the intima as well as stretch injury of the vessel by conventional angioplasty.
3.0-3.5 kg male, New Zealand white rabbits underwent standardized femoral artery injury. Arterial access was obtained through the right carotid artery which was ligated after the procedure. Heparin (100 U/kg IV) was given once arterial access was obtained. Injury was accomplished by the following method:
1. […]
Arterial specimens were then thawed and stripped of all adventitia. […] The samples were neutralized with 0.5N HCl and counted using multisol scintillation fluid.
Using the above described model of angioplasty induced restenosis it was determined whether chronic treatment with all trans retinoic acid can attenuate the cellular proliferation of the site of vascular injury. […]

[2] = tested on: smooth muscle cells (canine aorta); assay: β-FGF-induced smooth muscle cell proliferation, 3H-thymidine incorporation; type: cell-based; conditions: Canis lupus familiaris, Table 3, read-out: ED50 FOR SMOOTH MUSCLE CELLS, β-FGF
Experimental: (§1) The effect of 1% serum on DNA synthesis by endothelial or smooth muscle cells using ^3 H-thymidine incorporation was measured. For measuring the effectiveness of retinoids in inhibiting endothelial or smooth muscle cell proliferation induced by certain mitogens, i.e., serotonin or β-FGF the indicated concentrations were added to the media instead of 1% serum. Primary cells isolated from canine aorta were used for these studies. Unlike the typical cell lines (e.g. NIH 3T3 cells, etc.) 6-7 weeks are required to isolate and grow these primary cells in sufficient number to perform a single experiment. For the following studies, the primary cells (passages 2-4) were plated on 35×10 mm tissue culture dishes in 10% fetal bovine serum (FBS) and incubated. After 72 hours of growth the medias was replaced with 0.1% FBS for synchronization and incubated for additional 72 hours. Then 1% serum was added and incubated for 20 hours followed by the addition of 1μCi of ^3 H-thymidine. Four hours after the addition of 3H-thymidine the DNA was precipitated and the amount of ^3 H-thymidine incorporated was measured. This value is reported as the serum or serotonin or β-FGF stimulated value for cellular proliferation and is expressed as a percentage of baseline ^3 H-thymidine incorporation.
(§2) To examine the antiproliferative effect of retinoids, they were dissolved in 100% ethanol and then added at the indicated final concentrations. The compounds were added at the time of adding 1% serum or serotonin or β-FGF to stimulate the cells. […] After 20 hours of incubation with retinoids and 1% serum or serotonin or β-FGF, the ^3 H-thymidine incorporation was measured.
(§3) Certain of the retinoids were then tested for mitogen-induced cellular proliferation, utilizing serotonin (5HT) and β-FGF as such mitogens. In this testing, as reported in Table 3, below, the same dosages were evaluated for their effect on mitogen-induced cellular proliferation (The results are reported as ED50 and compared to the ED50 for serum-induced smooth muscle and endothelial cell growth).

[3] = tested on: endothelial cells (canine aorta); assay: Serum (1%)-induced endothelial cell proliferation, 3H-thymidine incorporation; type: cell-based; conditions: Canis lupus familiaris, Endothelial cell; serum induced; Table 3; read-out: ED50 FOR ENDOTHELIAL Cells, Serum
Experimental: as §1
(§4) To examine the antiproliferative effect of retinoids, they were dissolved in 100% ethanol and then added at the indicated final concentrations. The compounds were added at the time of adding 1% serum or serotonin or β-FGF to stimulate the cells. (The maximal final concentration of ethanol in culture media was 1% which is non-cytotoxic to endothelial or smooth muscle cells). After 20 hours of incubation with retinoids and 1% serum or serotonin or β-FGF, the ^3 H-thymidine incorporation was measured.
(§5) In this experimental dosages ranging between 0.01 and 100 μM were evaluated for the effect of AGN 191183 on cell growth.
(§6) The other retinoids, disclosed above, were also tested for their effect on smooth muscle and endothelial cell growth at the same dosages as for AGN 191183. Table 2 reports the ED50 for each of these retinoids.

[4] = tested on: smooth muscle cells (canine aorta); assay: Serotonin-induced smooth muscle cell proliferation, 3H-thymidine incorporation; type: cell-based; conditions: Canis lupus familiaris, Table 3, read-out: ED50 FOR SMOOTH MUSCLE CELLS, Serotonin
Experimental: as §1, §2, §3

[5] = tested on: endothelial cells (canine aorta); assay: β-FGF-induced endothelial cell proliferation, 3H-thymidine incorporation; type: cell-based; conditions: Canis lupus familiaris, Table 3, read-out: ED50 FOR ENDOTHELIAL Cells, β-FGF
Experimental: as §1, §2, §3

[6] = tested on: endothelial cells (canine aorta); assay: Serotonin-induced endothelial cell proliferation, 3H-thymidine incorporation; type: cell-based; conditions: Canis lupus familiaris, Table 3, read-out: ED50 FOR ENDOTHELIAL Cells, Serotonin
Experimental: as §1, §2, §3

[7] = tested on: smooth muscle cells (canine aorta); assay: Serum (1%)-induced smooth muscle cell proliferation, 3H-thymidine incorporation; type: cell-based; conditions: Canis lupus familiaris; serum induced; Table 3; read-out: ED50 FOR SMOOTH MUSCLE CELLS, Serum
Experimental: as §1, §4, §5, §6

For CC1=C(/C=C/C(C)=C/C=C/C(C)=C/C(=O)O)C(C)(C)CCC1 [AGN 100335, (E)-3,7-dimethyl-9-(2,6,6-trimethyl-1-cyclohexen-1-yl)-2,4,6,8-nonatetraenoic acid], the “animals receiving retinoic acid that died before the study was completed” value [1] was 2 out of 4, the “inhibition of cellular proliferation following angioplasty” value ([1]; 6 days pretreatment and days 7-9, very small number of animals) was “appeared to inhibit the development of cellular proliferation following angioplasty” and the IC50 [2] was greater than 100000 nM. For the same molecule, the IC50 [3] was 28000 nM, the IC50 [4] was 47 nM and the IC50 [5] was 9 nM. It also gave an IC50 [6] of 25 nM and an IC50 [7] of 35800 nM.
